We go through 18 compounds from patent US20250282749A1 (Tango Therapeutics, Inc., priority 2022, published 2025).

Type in all cases: cell-based
Assay [1] relates to HAP1 MTAP-deleted cell line. The experiment in a line: viability assay for the MTAP-deleted cell line. The note with it: Homo sapiens.
In assay [2] the test system is PRMT5 (SDMA) in HAP1 MTAP-intact cell line. The experiment in a line: SDMA in-cell western assay, HAP1 MTAP-intact cell line. The note with it: Homo sapiens, HAP1 MTAP-intact cell line (endogenous MTAP), read-out: Hap 1 MTAP intact IC50. An excerpt:
(§1) HAP1 MTAP-intact is a cell line in which endogenous levels of MTAP are expressed, and HAP1 MTAP-deleted is an MTAP-null cell line.

Assay [3] concerns PRMT5 (SDMA) in HAP1 MTAP-deleted cell line. The experiment in a line: SDMA in-cell western assay, HAP1 MTAP-deleted cell line. The note with it: for IC50 / IC90: Homo sapiens, SDMA in-cell western, HAP1 MTAP-deleted (MTAP-null) cell line; for Hap1 MTAP intact/deleted ratio: ratio of SDMA in-cell western IC50 in HAP1 MTAP-intact to IC50 in HAP1 MTAP-deleted cell line.
Source text: as §1

The term IC50 denotes the point on the concentration scale where inhibition reaches its midpoint. In general, IC90 refers to the concentration needed for an effect of 90%. Regarding `CCc1cc(NC(=O)C(=O)N2C[C@@H](C)N(C(=O)C(C)(C)C)C[C@@H]2c2ccc(N3CCN(C)CC3)cc2)cnc1N` [Compound 130, N-(6-amino-5-ethylpyridin-3-yl)-2-((2S,5R)-5-methyl-2-(4-(4-methylpiperazin-1-yl)phenyl)-4-pivaloylpiperazin-1-yl)-2-oxoacetamide], the IC50 in assay [1] is less than 100 nM. In addition, the IC50 in assay [2] fell in the range of 5 to 50 nM. Also, in assay [3], the IC50 was less than 5 nM, the concentration for an effect of 90% (IC90) is less than 75 nM and the “Hap1 MTAP intact/deleted ratio” value is “C (an IC50 ratio of less than 15 fold)”.
For `CCc1cc(NC(=O)C(=O)N2C[C@@H](C)N(C(=O)C3(C(F)(F)F)CC3)C[C@@H]2c2cccc(C(F)(F)F)c2)cnc1N` [Compound 150, N-(6-amino-5-ethylpyridin-3-yl)-2-((2S,5R)-5-methyl-4-(1-(trifluoromethyl)cyclopropanecarbonyl)-2-(3-(trifluoromethyl)phenyl)piperazin-1-yl)-2-oxoacetamide], in that order: less than 100 nM, greater than 50 nM, 5 to 50 nM, greater than 125 nM and “A (an IC50 ratio greater than or equal to 30 fold)”.
For `C[C@@H]1CN(C(=O)C(=O)Nc2cncc3cn[nH]c23)[C@@H](c2ccccc2)CN1CC(C)(C)C` [Compound 44, 2-oxo-N-(1H-pyrazolo[4,3-c]pyridin-7-yl)-2-[(2S,5R)-4-(2,2-dimethylpropyl)-5-methyl-2-phenyl-piperazin-1-yl]acetamide], in that order: 100 to 1000 nM, greater than 50 nM, less than 5 nM, less than 75 nM and “A (an IC50 ratio greater than or equal to 30 fold)”.
Compound `Cc1cc(NC(=O)C(=O)N2C[C@@H](C)N(C(=O)C3(C)CC3)C[C@@H]2c2cccs2)cnc1N` (single isomer, unassigned) [Compound 53] gave an IC50 in assay [1] of less than 100 nM. In addition, the IC50 in assay [2] fell in the range of 5 to 50 nM. For the same compound, in assay [3], the IC50 was less than 5 nM, the IC90 was less than 75 nM and the “Hap1 MTAP intact/deleted ratio” value is “C (an IC50 ratio of less than 15 fold)”.
As for `CC(C)C(=O)N1C[C@H](c2cccc(Cl)c2)N(C(=O)C(=O)Nc2cnc(N)c(C3CC3)c2)C[C@H]1C` [Compound 133, N-(6-amino-5-cyclopropylpyridin-3-yl)-2-((2S,5R)-2-(3-chlorophenyl)-4-isobutyryl-5-methylpiperazin-1-yl)-2-oxoacetamide], the figures for the IC50 in assay [1], in assay [2] and in assay [3] were less than 100 nM, greater than 50 nM and 5 to 50 nM, respectively. For the same compound, the concentration for an effect of 90% (IC90) in assay [3] is less than 75 nM. Also, the “Hap1 MTAP intact/deleted ratio” value in assay [3] is “B (an IC50 ratio greater than or equal to 15 fold but lower than 30 fold)”.
The like results for `Cc1cc(NC(=O)C(=O)N2C[C@@H](C)N(C(=O)C3(C(F)(F)F)CC3)C[C@@H]2c2cccs2)cnc1N` [Compound 111, N-(6-amino-5-methyl-3-pyridyl)-2-[(2R,5R)-5-methyl-2-(2-thienyl)-4-[1-(trifluoromethyl)cyclopropanecarbonyl]piperazin-1-yl]-2-oxo-acetamide] were, in that order, less than 100 nM, 5 to 50 nM, less than 5 nM, 75 to 125 nM and “C (an IC50 ratio of less than 15 fold)”.
For `CCc1cc(NC(=O)C(=O)N2C[C@@H](C)N(C(=O)C(C)(C)C)C[C@@H]2c2ccc(F)cc2)cnc1N` [Compound 33, N-(6-amino-5-ethylpyridin-3-yl)-2-((2S,5R)-2-(4-fluorophenyl)-5-methyl-4-pivaloylpiperazin-1-yl)-2-oxoacetamide], the IC50 in assay [1] was less than 100 nM. In assay [2], the IC50 was 5 to 50 nM. Moreover, in assay [3], the half-maximal inhibitory concentration (IC50) is less than 5 nM, the IC90 was less than 75 nM and the “Hap1 MTAP intact/deleted ratio” value is “C (an IC50 ratio of less than 15 fold)”.
For `Cc1cc(NC(=O)C(=O)N2CCN(C(=O)C3(C(F)(F)F)CC3)[C@H](C)[C@H]2c2ccc(F)c(F)c2)cnc1N` [Compound 66], in that order: 100 to 1000 nM, greater than 50 nM, 5 to 50 nM, greater than 125 nM and “A (an IC50 ratio greater than or equal to 30 fold)”.
Compound `CC(C)C(=O)N1C[C@H](c2cccc(N3CCN(C)CC3)c2)N(C(=O)C(=O)Nc2cncc3cn[nH]c23)C[C@H]1C` [Compound 113, 2-((2S,5R)-4-isobutyryl-5-methyl-2-(3-(4-methylpiperazin-1-yl)phenyl)piperazin-1-yl)-2-oxo-N-(1H-pyrazolo[4,3-c]pyridin-7-yl)acetamide] yielded an IC50 in assay [1] of less than 100 nM. Further, the IC50 in assay [2] is greater than 50 nM. In assay [3], the IC50 is 5 to 50 nM, the IC90 is greater than 125 nM and the “Hap1 MTAP intact/deleted ratio” value is listed as “C (an IC50 ratio of less than 15 fold)”.
The like results for `Cc1cccc([C@H]2CN(C(=O)C3(C(F)(F)F)CC3)[C@H](C)CN2C(=O)C(=O)Nc2cnc(N)c(C)c2)c1` [Compound 30, N-(6-amino-5-methylpyridin-3-yl)-2-((2S,5R)-5-methyl-2-(m-tolyl)-4-(1-(trifluoromethyl)cyclopropanecarbonyl)piperazin-1-yl)-2-oxoacetamide] were, in that order, less than 100 nM, greater than 50 nM, 5 to 50 nM, 75 to 125 nM and “C (an IC50 ratio of less than 15 fold)”.
For `Cc1cc(NC(=O)C(=O)N2C[C@@H](C)N(C(=O)C3(C(F)(F)F)CC3)C[C@@H]2c2ccc(N3CCN(C)CC3)cc2)cnc1N` [Compound 77, N-(6-amino-5-methylpyridin-3-yl)-2-((2S,5R)-5-methyl-2-(4-(4-methylpiperazin-1-yl)phenyl)-4-(1-(trifluoromethyl)cyclopropanecarbonyl)piperazin-1-yl)-2-oxoacetamide], in that order: less than 100 nM, 5 to 50 nM, less than 5 nM, less than 75 nM and “B (an IC50 ratio greater than or equal to 15 fold but lower than 30 fold)”.
In the case of `COc1ncc(NC(=O)C(=O)N2C[C@H](C)N(C(=O)C(C)C)C[C@H]2c2ccc(F)cc2)cc1C(N)=O` [Compound 88, 5-[[2-[(2R,5S)-2-(4-fluorophenyl)-5-methyl-4-(2-methylpropanoyl)piperazin-1-yl]-2-oxo-acetyl]amino]-2-methoxy-pyridine-3-carboxamide], the IC50 in assay [1] was greater than 1000 nM. For the same compound, the IC50 in assay [2] is greater than 50 nM. Besides, in assay [3], the IC50 is greater than 50 nM, the IC90 is greater than 125 nM and the “Hap1 MTAP intact/deleted ratio” value was “C (an IC50 ratio of less than 15 fold)”.
Take `C[C@@H]1CN(C(=O)C(=O)Nc2cnc(N)c3cn[nH]c23)[C@@H](c2ccccc2)CN1C1CC1` (racemic) [Compound 170, N-(4-Amino-1H-pyrazolo[4,3-c]pyridin-7-yl)-2-oxo-2-[rac-(2S,5R)-4-cyclopropyl-5-methyl-2-phenyl-piperazin-1-yl]acetamide]: the results for the IC50 in assay [1], in assay [2] and in assay [3] were less than 100 nM, 5 to 50 nM and less than 5 nM, respectively. The “Hap1 MTAP intact/deleted ratio” value in assay [3] was “C (an IC50 ratio of less than 15 fold)”.
Turning to `CCc1cc(NC(=O)C(=O)N2C[C@@H](C)N(C(=O)C(C)C)C[C@@H]2c2ccc(F)c(Cl)c2)cnc1N` [Compound 87, N-(6-amino-5-ethylpyridin-3-yl)-2-((2S,5R)-2-(3-chloro-4-fluorophenyl)-4-isobutyryl-5-methylpiperazin-1-yl)-2-oxoacetamide], the IC50 in assay [1] is less than 100 nM. For the same compound, the IC50 in assay [2] was greater than 50 nM. In assay [3], the IC50 was less than 5 nM, the IC90 is greater than 125 nM and the “Hap1 MTAP intact/deleted ratio” value is listed as “A (an IC50 ratio greater than or equal to 30 fold)”.
As to `CC(C)C(=O)N1CCN(C(=O)C(=O)Nc2cnc(N)c3cn[nH]c23)[C@@H](c2ccccc2)C1` [Compound 126, (S)—N-(4-amino-1H-pyrazolo[4,3-c]pyridin-7-yl)-2-(4-isobutyryl-2-phenylpiperazin-1-yl)-2-oxoacetamide], in assay [1], the IC50 lay in the range of 100 to 1000 nM. The IC50 in assay [2] is greater than 50 nM. Further, in assay [3], the IC50 is less than 5 nM, the IC90 is less than 75 nM and the “Hap1 MTAP intact/deleted ratio” value is reported as “A (an IC50 ratio greater than or equal to 30 fold)”.
The like results for `COc1ncc(NC(=O)C(=O)N2C[C@@H](C)N(C(=O)C3(C(F)(F)F)CC3)C[C@@H]2c2ccc(F)c(Cl)c2)cc1C(N)=O` [Compound 63, 5-(2-((2S,5R)-2-(3-chloro-4-fluorophenyl)-5-methyl-4-(1-(trifluoromethyl)cyclopropanecarbonyl)piperazin-1-yl)-2-oxoacetamido)-2-methoxynicotinamide] were, in that order, 100 to 1000 nM, greater than 50 nM, 5 to 50 nM, 75 to 125 nM and “A (an IC50 ratio greater than or equal to 30 fold)”.
The like results for `Cc1cc(NC(=O)C(=O)N2C[C@@H](C)N(C(=O)C(C)(C)CN3CCN(C)CC3)C[C@@H]2c2ccccc2)cnc1N` [Compound 134] were, in that order, less than 100 nM, 5 to 50 nM, 5 to 50 nM, greater than 125 nM and “C (an IC50 ratio of less than 15 fold)”.
For `Cc1cc(NC(=O)C(=O)N2C[C@H](C)N(CC(C)C)C[C@H]2c2ccc(F)cc2)cnc1N` [Compound 80, N-(6-amino-5-methyl-3-pyridyl)-2-[(2R,5S)-2-(4-fluorophenyl)-4-isobutyl-5-methyl-piperazin-1-yl]-2-oxo-acetamide], in that order: 100 to 1000 nM, greater than 50 nM, 5 to 50 nM, greater than 125 nM and “C (an IC50 ratio of less than 15 fold)”.
